The values below come from patent publication US11572590B2, “Methods for evaluating tumor cell spheroids using 3D microfluidic cell culture device” (Dana-Farber Cancer Institute, Inc., priority 2017, dated 2023).

Like-named read-outs stand apart in the source and are kept apart here.

Assay in all cases: SelectScreen Kinase Profiling, single point inhibition and IC50 for off-target kinases
Common to all, as to assay type: biochemical

In assay [1] the target is T1, off-target kinases (Homo sapiens, UniProt Q96L34).
T1 sequence (Q96L34 1-752): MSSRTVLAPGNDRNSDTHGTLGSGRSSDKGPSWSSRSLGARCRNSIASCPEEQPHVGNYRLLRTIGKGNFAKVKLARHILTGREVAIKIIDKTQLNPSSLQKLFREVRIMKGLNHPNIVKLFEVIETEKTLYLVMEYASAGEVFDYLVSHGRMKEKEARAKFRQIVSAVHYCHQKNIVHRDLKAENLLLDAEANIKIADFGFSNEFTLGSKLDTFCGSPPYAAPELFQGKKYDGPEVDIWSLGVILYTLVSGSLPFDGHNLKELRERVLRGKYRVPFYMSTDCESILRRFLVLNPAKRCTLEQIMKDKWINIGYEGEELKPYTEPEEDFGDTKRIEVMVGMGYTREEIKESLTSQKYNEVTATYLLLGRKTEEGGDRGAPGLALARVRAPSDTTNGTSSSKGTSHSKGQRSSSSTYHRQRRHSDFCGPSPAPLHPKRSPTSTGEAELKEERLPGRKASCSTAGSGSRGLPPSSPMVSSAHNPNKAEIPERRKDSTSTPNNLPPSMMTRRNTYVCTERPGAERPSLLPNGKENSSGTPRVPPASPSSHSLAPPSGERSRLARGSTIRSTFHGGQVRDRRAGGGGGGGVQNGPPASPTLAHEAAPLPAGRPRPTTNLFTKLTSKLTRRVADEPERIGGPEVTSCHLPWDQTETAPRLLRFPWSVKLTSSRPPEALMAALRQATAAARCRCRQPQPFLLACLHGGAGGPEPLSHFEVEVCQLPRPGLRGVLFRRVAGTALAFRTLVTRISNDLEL
The conditions noted are these: MARK4, ATP Km app, ZLYTE.

Assay [2] concerns the target off-target kinases (Homo sapiens, UniProt P00519, Y253F). As to conditions: ABL1 Y253F, ATP Km app, ZLYTE.
The target in assay [3] is T2, off-target kinases (Homo sapiens, UniProt Q13873).
T2 sequence (Q13873 27-1038): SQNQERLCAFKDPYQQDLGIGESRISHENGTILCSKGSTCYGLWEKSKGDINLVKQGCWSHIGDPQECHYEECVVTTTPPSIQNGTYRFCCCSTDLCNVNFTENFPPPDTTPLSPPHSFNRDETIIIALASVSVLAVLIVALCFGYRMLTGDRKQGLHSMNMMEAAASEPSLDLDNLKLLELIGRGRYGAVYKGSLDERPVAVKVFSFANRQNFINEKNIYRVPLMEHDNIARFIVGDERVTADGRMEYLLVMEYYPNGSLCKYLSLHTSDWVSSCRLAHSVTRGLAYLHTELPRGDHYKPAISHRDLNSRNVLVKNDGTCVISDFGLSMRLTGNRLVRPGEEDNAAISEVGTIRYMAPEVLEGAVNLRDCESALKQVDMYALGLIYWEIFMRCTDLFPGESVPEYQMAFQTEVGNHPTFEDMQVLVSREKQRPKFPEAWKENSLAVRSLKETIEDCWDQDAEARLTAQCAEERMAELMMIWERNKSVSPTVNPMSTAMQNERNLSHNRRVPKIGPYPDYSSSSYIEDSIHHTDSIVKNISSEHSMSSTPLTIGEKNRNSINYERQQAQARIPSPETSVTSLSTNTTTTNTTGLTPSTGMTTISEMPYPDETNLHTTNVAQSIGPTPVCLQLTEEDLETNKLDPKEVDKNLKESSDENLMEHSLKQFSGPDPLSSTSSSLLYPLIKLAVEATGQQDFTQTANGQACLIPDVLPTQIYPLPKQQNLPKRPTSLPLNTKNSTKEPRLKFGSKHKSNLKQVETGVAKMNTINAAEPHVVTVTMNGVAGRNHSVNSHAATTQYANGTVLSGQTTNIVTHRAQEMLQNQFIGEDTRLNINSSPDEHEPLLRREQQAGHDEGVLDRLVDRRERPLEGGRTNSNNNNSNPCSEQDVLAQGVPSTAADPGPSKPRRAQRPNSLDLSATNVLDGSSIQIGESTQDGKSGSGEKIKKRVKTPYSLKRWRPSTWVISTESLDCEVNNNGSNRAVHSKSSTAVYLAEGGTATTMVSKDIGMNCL
The conditions noted are these: BMPR2, LanthaScreen Binding. In general terms: In TR-FRET formats the signal depends on donor and acceptor labels being close together.

The term inhibition denotes the drop in the measured response relative to a control, in per cent. On to `N#Cc1cc(-c2ncnc(Nc3ccc(N4CCN(C5COC5)CC4)cc3)n2)ccc1OC1CCOCC1` [Compound 1, 5-(4-((4-(4-(oxetan-3-yl)piperazin-1-yl)phenyl)amino)-1,3,5-triazin-2-yl)-2-((tetrahydro-2H-pyran-4-yl)oxy)benzonitrile], for which the inhibition on off-target kinases [1] (read-out: % Inhibition 1) came to 96%; on off-target kinases [1] (read-out: % Inhibition 2), 93%; on off-target kinases [1] (read-out: % Inhibition Avg) it was 95%; at off-target kinases [2] (read-out: % Inhibition 1), 61%; on off-target kinases [2] (read-out: % Inhibition 2) it was 48%; at off-target kinases [2] (read-out: % Inhibition Avg), 54%. Besides, the inhibition on off-target kinases [3] (read-out: % Inhibition 1) turned out to be 50%; at off-target kinases [3] (read-out: % Inhibition 2), 47%; at off-target kinases [3] (read-out: % Inhibition Avg) it was 49%.
